# Measurements as given in patent publication US20240261302A1, “METHODS OF TREATING NEURODEGENERATIVE DISEASES OR CONDITIONS” (FloraScience Inc., priority 2023, published 2024).
# Entries after “also recorded” stand apart in the source; their conditions may differ.
# Tests used:
# CB1/CB2 receptors = conditions: cited from earlier work
# HT22 cells [1] = assay: Relative mtDNA copy number (qPCR); type: cell-based, mouse
# Protocol: Quantitative Reverse Transcription PCR (qPCR) Analysis. HT22 cells were seeded onto 60 mm dishes at a density of 140,000 cells/dish in DMEM supplemented with 10% FBS and 1% antibiotics. After the desired treatments, total RNA was extracted using the RNeasy Mini Kit (Qiagen, Cat #74104, Hilden, Germany). cDNA was synthesized using SuperScript III First-Strand Synthesis System for qPCR (Invitrogen, Cat #18080051, Carlsbad, CA). Amplification was performed with TaqMan Fast Advanced Master Mix (ThermoFisher Scientific, Cat #4444556, Carlsbad, CA) using a QuantStudio 3 Real-Time PCR Systems (ThermoFisher Scientific, CA). The primer pairs were used as follows: CNR1 (Forward, 5′-[…]-3′; Reverse, 5′-[…]-3′); CNR2 (Forward, 5′-[…]-3′; Reverse, 5′-GCCGGGAGGACAGGATAAT-3′). The expression of the GAPDH gene was measured for normalization. The mouse Mitochondrial DNA Copy Number Kit was used (Detroit R&D, Cat #MCN3, Detroit, MI) according to the manufacturer's instructions. Relative fold change was calculated using the 2^(−ΔΔCt) method. Samples were analyzed in three dishes per independent experiment (n=3).
# [2] = Trolox Equivalent Antioxidant Capacity (TEAC) Assay; type: biochemical; conditions: 5 to 10 μM, compared to Trolox at 5 μM
# Protocol: Trolox Equivalent Antioxidant Capacity (TEAC) Assay. Briefly, an aqueous 2,2′-azino-bis(3-ethylbenzothiazoline-6-sulfonic acid) (ABTS) solution (7 mM) was treated with potassium persulfate (K2S2O8) (2.5 mM) overnight at room temperature in the dark and diluted in water to an OD value of 0.7 at 734 nm. 190 μL of the diluted ABTS solution was added to a 96-well plate containing 10 μL of test compounds or Trolox at the desired concentrations. The plate was vigorously mixed and incubated for 4 min at room temperature in the dark. Optical absorbance was measured at 734 nm on a SpectraMax M5 microplate reader. The decrease in absorbance of the ABTS radical cation indicates the presence of antioxidants. Samples were analyzed in eight wells per independent experiment (n=8). The TEAC values of each sample were presented as the percentage of the standard Trolox at 5 μM.
# HT22 cells [3] = assay: Total GSH Measurements; type: cell-based, mouse; conditions: 5 μM
# Protocol: Total GSH Measurements. HT22 cells were seeded onto 35 mm dishes at a density of 70,000 cells/dish in DMEM supplemented with 10% FBS and 1% antibiotics. After the desired treatments, the cells were scraped into ice-cold PBS and the cell pellets collected by centrifugation (500 g). The pellets were resuspended in PBS and 10% sulfosalicylic acid was added at a final concentration of 3.3% to the cells. Proteins were pelleted by centrifugation and the supernatant neutralized. Total GSH was determined by the recycling assay based on the reduction of 5,5-dithiobis(2-nitrobenzoic acid) with glutathione reductase and NADPH and normalized to protein recovered from the acid-precipitated pellet by treatment with 0.2 N NaOH at 37° C. overnight and measured by the BCA protein assay (Pierce, Rockford, IL, USA). Samples were analyzed in four dishes per independent experiment (n=4).
# HT22 mt-GFP WT cells = assay: Cell viability after RSL3 with/without FCCP (CyQUANT DNA-based assay, fluorescence microscopy), mt-GFP WT cells; design: species or system mouse
smiles,measurement,setting,value
"CCCCCc1cc(O)c2c(c1)OC(C)(C)c1ccc(C)cc1-2 [CBN, 6,6,9-Trimethyl-3-pentyl-benzo[c]chromen-1-ol]",activity at CB1/CB2 receptors,CB1/CB2 receptors,weak agonist
same,"binding affinities compared to THC, fold lower",CB1/CB2 receptors; tissue- or cell-type specific,10 to 100 fold
same,mtDNA copy number with RSL3,"HT22 cells [1]; 50 nM RSL3, 16 hr",sustain mtDNA at the control level
same,"mtDNA copy number, compound alone",HT22 cells [1]; 5 μM,did not induce significant changes
same,capacity to scavenge total free radicals (TEAC),[2],relatively weak capacity
same,total GSH levels,HT22 cells [3],no impact
same,"protection against RSL3-induced cell death, no FCCP pretreatment",HT22 mt-GFP WT cells; 16 hr,strong and equivalent protection
same,protection against RSL3 after FCCP pretreatment,"HT22 mt-GFP WT cells; FCCP 5 μM 24 hr, then 16 hr",protected; also recorded: protective
same,"cell numbers after FCCP pretreatment, co-treatment with compound","HT22 mt-GFP WT cells; FCCP 24 hr, CBN additional 16 hr",did not further change the cell numbers
